Measured values: article PMC6599804, “N^ɛ-acetyl lysine derivatives with zinc binding groups as novel HDAC inhibitors” (Royal Society Open Science, 2019)

Assays:
[1] = tested on: HDACs (HeLa nuclear extract); assay: HDAC deacetylation inhibition assay, HeLa nuclear extract with BOC-Ac-Lys-AMC substrate; type: biochemical, human; conditions: BOC-Ac-Lys-AMC substrate; for HDAC inhibition (%): compound at 100 µM; for IC50: read-out: IC50 values, HeLa nuclear extract
Protocol: With these N^ɛ-acetyl lysine derivatives in hand (schemes 1–3), we then did the pilot screening for general HDAC inhibitory activity at a compound's concentration of 100 µM. All tested compounds were subjected to the inhibition assay against the HDAC deacetylation reaction by using a HeLa nuclear extract as a source of HDACs and BOC-Ac-Lys-AMC as a substrate.
HDACS inhibition assay in vitro
In vitro HDACs inhibition assays were conducted as previously described. In brief, 4 μL of […]
(1μL), then fluorogenic substrate Boc-Lys(acetyl)-AMC (100 μM) and Buffer A (50 mM Tis-HCl pH=8.0, 150 mM NaCl, 30 mM KCl, 10 mM MgCl2) were added. After incubation at 37℃ for 1h, […]
And then incubation at 37℃ for 1h, the mixture was stopped by the addition of 50 μL of Buffer B (200mM HCl/300 mM Acetic acid), fluorescence intensity was measured using a microplate reader at excitation and emission wavelengths of 360 nm and 460 nm. The inhibition ratios were calculated from the fluorescence intensity readings of tested wells relative to those of control wells, […]
regression analysis of the concentration/inhibition data. All experiments were done in triplicate. […]

[2] = target: T1, HDAC8 (Homo sapiens, UniProt Q9BY41); assay: HDAC subtype selectivity assay with subtype substrate, HDAC8; type: biochemical; conditions: read-out: HDAC Inhibition (%) HDAC8
T1 construct: Hela nuclear extract; endogenous in cells; host or cells: HeLa nuclear extract
T1 sequence (Q9BY41 1-377): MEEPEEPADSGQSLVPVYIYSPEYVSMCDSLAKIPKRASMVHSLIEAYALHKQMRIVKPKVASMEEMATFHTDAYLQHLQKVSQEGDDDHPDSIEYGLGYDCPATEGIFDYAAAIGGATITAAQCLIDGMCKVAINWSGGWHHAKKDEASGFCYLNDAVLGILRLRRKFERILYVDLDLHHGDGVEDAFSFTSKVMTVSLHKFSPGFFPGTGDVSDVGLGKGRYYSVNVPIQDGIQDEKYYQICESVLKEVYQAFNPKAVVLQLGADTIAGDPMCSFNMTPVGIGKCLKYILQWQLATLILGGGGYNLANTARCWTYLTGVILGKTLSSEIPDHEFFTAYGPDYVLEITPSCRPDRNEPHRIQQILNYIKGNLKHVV

[3] = tested on: K562 cells; assay: MTS cell proliferation assay, K562; type: cell-based, human
Protocol: (§1) Because of the great anti-tumour potential of HDAC inhibitors, we did the antiproliferative evaluation of 18c against K562 cells, A549 cells and HepG2 cells using MTS assay as previously described. […]
(§2) The rate of cell survival under the action of test substances was evaluated by an improved MTS assay as previously described. In brief, A549 (5000 cells / well) , HepG2 (5000 cells / well), HEK293 (5000 cells / well) and K562 (1 ×10^4 cells/well) cell lines were seeded into 96-well plates in 100 µL medium. After overnight incubation, each well was added with different […]
(§3) 48 hours 5ul of MTS reagent solution was added into each well and the cells were incubated for another 4 hours at 37℃ under 5% CO2 environment. The absorbance was measured at 490 nm in […]
(§4) a Microplate to determine the cell viability. The absorbance was directly proportional to the number of viable cells. All experiments were done in triplicate. […]
(§5) calculate and compare their selective index. […]
(§6) Unbound antibodies

[4] = tested on: A549 cells; assay: MTS cell proliferation assay, A549; type: cell-based, human
Protocol: as §1, §2, §3, §4, §5, §6

[5] = tested on: HepG2 cells; assay: MTS cell proliferation assay, HepG2; type: cell-based, human
Protocol: as §1, §2, §3, §4, §5, §6

[6] = tested on: HEK293; assay: MTS cell proliferation assay, HEK293 (non-cancerous kidney cell); type: cell-based; conditions: Homo sapiens, HEK293; MTS assay, 48 hours; normal cells
Protocol: as §1, §2, §3, §4, §5, §6

[7] = Homo sapiens, MTS assay, 48 hours

SMILES	HDAC inhibition (%) [1]	further results
O=C(O)CCCCC(=O)NCCCC[C@H](NC(=O)OCc1ccccc1)C(=O)Nc1ccccc1 [Compound 16b]	4.3 ± 0.5%	–
Cc1ccc(C(=O)NCCCC[C@H](NC(=O)OCc2ccccc2)C(=O)Nc2ccccc2)cn1 [Compound 14b]	39.2 ± 0.8%	–
COC(=O)CCCCCCC(=O)NCCCC[C@H](NC(=O)OCc1ccccc1)C(=O)Nc1ccccc1 [Compound 15c]	7.1 ± 0.3%	–
O=C(O)CCC(=O)NCCCC[C@H](NC(=O)OCc1ccccc1)C(=O)Nc1ccccc1 [Compound 9]	37.5 ± 0.6%	–
COC(=O)CC(=O)NCCCC[C@H](NC(=O)OCc1ccccc1)C(=O)Nc1ccccc1 [Compound 15a]	19.4 ± 10.9%	–
O=C(CCCCCCC(=O)Nc1ccccc1)NO [SAHA (1), Vorinostat, reference compound]	–	inhibition at 1 µM [2]: 41.19 ± 0.18%
O=C(N[C@@H](CCCCNC(=O)c1csc2ccccc12)C(=O)Nc1ccccc1)OCc1ccccc1 [Compound 14n]	16.2 ± 2.0%	–
O=C(CCCCC(=O)NCCCC[C@H](NC(=O)OCc1ccccc1)C(=O)Nc1ccccc1)NO [Compound 18b]	99.9 ± 0.9%	IC50 [1]: 10.4 ± 3.86 µM
O=C(N[C@@H](CCCCNC(=O)c1ccco1)C(=O)Nc1ccccc1)OCc1ccccc1 [Compound 14e]	54.0 ± 1.9%	–
O=C(N[C@@H](CCCCNC(=O)C1=CCc2ccccc21)C(=O)Nc1ccccc1)OCc1ccccc1 [Compound 14k]	22.4 ± 0.2%	–
N[C@@H](Cc1c[nH]c2ccccc12)C(=O)NCCCC[C@H](NC(=O)OCc1ccccc1)C(=O)Nc1ccccc1 [Compound 14q]	36.2 ± 0.4%	–
O=C(N[C@@H](CCCCNC(=O)c1ccc[nH]1)C(=O)Nc1ccccc1)OCc1ccccc1 [Compound 14d]	48.4 ± 4.4%	–
O=C(N[C@@H](CCCCNC(=O)c1c[nH]c2ccccc12)C(=O)Nc1ccccc1)OCc1ccccc1 [Compound 14j]	12.2 ± 6.5%	–
O=C(N[C@@H](CCCCNC(=O)c1cccnc1)C(=O)Nc1ccccc1)OCc1ccccc1 [Compound 14a]	39.6 ± 0.4%	–
O=C(N[C@@H](CCCCNC(=O)c1cnc2ccccc2c1)C(=O)Nc1ccccc1)OCc1ccccc1 [Compound 14h]	28.3 ± 4.6%	–
O=C(/C=C/C(=O)NCCCC[C@H](NC(=O)OCc1ccccc1)C(=O)Nc1ccccc1)NO [Compound 13]	39.3 ± 3.1%	–
O=C(O)CC(=O)NCCCC[C@H](NC(=O)OCc1ccccc1)C(=O)Nc1ccccc1 [Compound 16a]	4.0 ± 1.7%	–

SMILES	HDAC inhibition (%) [1]	further results
Nc1ccccc1NC(=O)CCCCCCC(=O)NCCCC[C@H](NC(=O)OCc1ccccc1)C(=O)Nc1ccccc1 [Compound 17c]	50.6 ± 6.9%	–
COC(=O)CCCCC(=O)NCCCC[C@H](NC(=O)OCc1ccccc1)C(=O)Nc1ccccc1 [Compound 15b]	2.9 ± 0.8%	–
O=C(N[C@@H](CCCCNC(=O)c1coc2ccccc12)C(=O)Nc1ccccc1)OCc1ccccc1 [Compound 14m]	14.3 ± 0.5%	–
O=C(N[C@@H](CCCCNC(=O)c1ccc2ncccc2c1)C(=O)Nc1ccccc1)OCc1ccccc1 [Compound 14i]	36.8 ± 1.1%	–
O=C(CC1SC(=O)NC1=O)NCCCC[C@H](NC(=O)OCc1ccccc1)C(=O)Nc1ccccc1 (stereo partly drawn) [Compound 14o]	48.6 ± 0.5%	–
O=C(CCC(=O)NCCCC[C@H](NC(=O)OCc1ccccc1)C(=O)Nc1ccccc1)NO [Compound 11]	86.0 ± 3.0%	IC50 [1]: 25.4 ± 1.35 µM
O=C(N[C@@H](CCCCNCc1c[nH]c2ccccc12)C(=O)Nc1ccccc1)OCc1ccccc1 [Compound 14l]	3.1 ± 0.5%	–
CC(C)(C)OC(=O)N[C@@H](Cc1c[nH]c2ccccc12)C(=O)NCCCC[C@H](NC(=O)OCc1ccccc1)C(=O)Nc1ccccc1 [Compound 14p]	24.7 ± 2.8%	–
Nc1ccccc1NC(=O)CCC(=O)NCCCC[C@H](NC(=O)OCc1ccccc1)C(=O)Nc1ccccc1 [Compound 12]	30.7 ± 3.7%	–
Nc1ccccc1NC(=O)CC(=O)NCCCC[C@H](NC(=O)OCc1ccccc1)C(=O)Nc1ccccc1 [Compound 17a]	7.0 ± 0.4%	–
O=C(CS)NCCCC[C@H](NC(=O)OCc1ccccc1)C(=O)Nc1ccccc1 [Compound 14g]	10.3 ± 4.9%	–
Nc1ccccc1NC(=O)CCCCC(=O)NCCCC[C@H](NC(=O)OCc1ccccc1)C(=O)Nc1ccccc1 [Compound 17b]	69.3 ± 3.4%	–
O=C(N[C@@H](CCCCNC(=O)c1cccs1)C(=O)Nc1ccccc1)OCc1ccccc1 [Compound 14f]	45.0 ± 0.4%	–
O=C(/C=C/c1cccnc1)NCCCC[C@H](NC(=O)OCc1ccccc1)C(=O)Nc1ccccc1 [Compound 14c]	51.0 ± 1.0%	–
O=C(O)CCCCCCC(=O)NCCCC[C@H](NC(=O)OCc1ccccc1)C(=O)Nc1ccccc1 [Compound 16c]	1.1 ± 0.4%	antiproliferative activity ([3]; 500 µM, MTS): no obvious antiproliferative activities; IC50 [3, 7]: > 500 µM; antiproliferative activity ([4]; 500 µM, MTS): no obvious antiproliferative activities; IC50 [4, 7]: > 500 µM; antiproliferative activity ([5]; 500 µM, MTS): no obvious antiproliferative activities; IC50 [5, 7]: > 500 µM; IC50 [6]: > 500 µM
O=C(O)/C=C/C(=O)NCCCC[C@H](NC(=O)OCc1ccccc1)C(=O)Nc1ccccc1 [Compound 10]	38.7 ± 1.0%	–
